Source: patent publication US10913781B2, “Pepducin design and use” (Tufts Medical Center, Inc., priority 2011, dated 2021)
Peptide text beside a SMILES is read from it. * marks the point of attachment. Palmitoyl = CCCCCCCCCCCCCCCC(=O)*

Assays:
mast cell tryptase [1] = biological target: T1, mast cell tryptase (Mus musculus, UniProt P21845); assay: λ-carrageenan/kaolin-induced mouse paw edema (tryptase inhibitor); assay type: in vivo; settings: C57BL/6 mice; 5 mg/kg s.c.
T1 construct: from tissue; host or cells: C57BL/6 mouse, hind paw in vivo
T1 sequence (P21845 32-276): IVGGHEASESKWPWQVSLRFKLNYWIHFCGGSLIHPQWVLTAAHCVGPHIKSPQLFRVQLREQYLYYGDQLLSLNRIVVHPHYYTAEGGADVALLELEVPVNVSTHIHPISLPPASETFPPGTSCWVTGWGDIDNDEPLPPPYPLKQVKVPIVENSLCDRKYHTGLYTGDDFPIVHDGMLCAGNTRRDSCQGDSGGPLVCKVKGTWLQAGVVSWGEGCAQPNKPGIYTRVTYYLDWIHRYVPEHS
Procedure: (A) Mast cells were treated with 2 mg/mL of mast cell degranulating agent 48/80 or 2% 1-carrageenan/4% kaolin. […] (B) P2pal-18S inhibits human neutrophil chemotaxis (n=6) to mast cell media. Human neutrophils were incubated with […] P2pal-18S, or […] mast cell tryptase inhibitor APC-366 and allowed to migrate 30 min toward CM from mast cells. (C) C57BL/6 mice (n=5) were pretreated with the tryptase inhibitor APC-366 (5 mg/kg, s.c.) or vehicle (20% DMSO) and then challenged with intraplantar injection of 1-carrageenan/kaolin. (D) Mast cell conditioned media (30 μL of 1-carrageenan/kaolin stimulated media) was injected into the hindpaws of C57BL/6 mice treated with 10 mg/kg P2pal-18S or vehicle (n=5). Data represent mean±SEM. #, P=0.07, *, P<0.05 and **, P<0.005. (E) Mast cell-deficient mice have a significant reduction in 1-carrageenan/kaolin induced paw edema (8 h time point, n=4-6) as compared to littermate controls. Mast-cell deficient mice or littermate controls with intact mast cells were treated with P2pal-18S (10 mg/kg, s.c.) or vehicle and hind paws challenged with 1-carrageenan/kaolin irritant. Error bars represent mean±SEM.
To examine whether mast cells and mast cell tryptase were activating PAR2 in the paw edema model in vivo, mice were depleted of mast cells through pretreatment with compound 48/80 (Carvalho M et al. Eur J Pharmacol (2005), 525: 161-169). […]

mast cell tryptase [2] = assay: Human neutrophil chemotaxis toward mast cell conditioned media (tryptase inhibitor); assay type: cell-based; settings: 10 mM APC-366; 30 min
Procedure: (A) Mast cells were treated with 2 mg/mL of mast cell degranulating agent 48/80 or 2% 1-carrageenan/4% kaolin. […] (B) P2pal-18S inhibits human neutrophil chemotaxis (n=6) to mast cell media. Human neutrophils were incubated with […] P2pal-18S, or […] mast cell tryptase inhibitor APC-366 and allowed to migrate 30 min toward CM from mast cells. (C) C57BL/6 mice (n=5) were pretreated with the tryptase inhibitor APC-366 (5 mg/kg, s.c.) or vehicle (20% DMSO) and then challenged with intraplantar injection of 1-carrageenan/kaolin. (D) Mast cell conditioned media (30 μL of 1-carrageenan/kaolin stimulated media) was injected into the hindpaws of C57BL/6 mice treated with 10 mg/kg P2pal-18S or vehicle (n=5). Data represent mean±SEM. #, P=0.07, *, P<0.05 and **, P<0.005. (E) Mast cell-deficient mice have a significant reduction in 1-carrageenan/kaolin induced paw edema (8 h time point, n=4-6) as compared to littermate controls. Mast-cell deficient mice or littermate controls with intact mast cells were treated with P2pal-18S (10 mg/kg, s.c.) or vehicle and hind paws challenged with 1-carrageenan/kaolin irritant. Error bars represent mean±SEM. […]

PAR2 [3] = biological target: T2, PAR2 (Homo sapiens, UniProt P55085); assay: Agonist | (%)^†; design: SW620 colon adenocarcinoma cells that endogenously express PAR2; endogenous in cells; host or cells: SW620 (in A7 the SW620 cells were additionally stably transfected with PAR1); settings: 4 µM
Target sequence in this assay (P55085 26-397 limits assumed): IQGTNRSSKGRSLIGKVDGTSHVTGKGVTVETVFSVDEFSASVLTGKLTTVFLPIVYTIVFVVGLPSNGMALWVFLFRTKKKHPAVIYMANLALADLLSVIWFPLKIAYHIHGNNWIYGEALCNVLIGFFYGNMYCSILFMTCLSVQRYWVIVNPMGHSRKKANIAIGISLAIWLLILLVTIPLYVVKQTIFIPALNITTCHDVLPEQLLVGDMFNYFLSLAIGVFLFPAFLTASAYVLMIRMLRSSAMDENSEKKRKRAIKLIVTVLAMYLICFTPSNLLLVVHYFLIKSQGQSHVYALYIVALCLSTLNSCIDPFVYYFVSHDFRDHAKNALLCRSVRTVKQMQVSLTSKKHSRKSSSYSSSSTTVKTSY
Procedure: (§2) (A) Agonist and antagonist activity of third intracellular (i3) loop PAR2 pepducins (structure shown on top) using calcium flux assays with SW620 colon adenocarcinoma cells that endogenously express PAR2. Each column of three calcium flux traces corresponds to the i3 pepducin sequence shown above. The top row is the agonist activity of 3-4 μM pepducin and the middle row is the agonist activity of 14-15 μM pepducin. […] Final concentration of DMSO vehicle was 0.2%. […] (C) Agonist activity for each pepducin from (A) is reported as initial velocity of calcium flux at 4 μM pepducin (†), or at 14-15 μM pepducin (‡).

PAR4 = biological target: T3, PAR4 (Homo sapiens, UniProt Q96RI0); assay: [3H]-InsP formation in COS7 cells transfected with PAR4; assay type: cell-based; design: expressed in transfected cells; host or cells: COS7; settings: 100 μM AYPGKF, 30 min
T3 sequence (Q96RI0 18-385): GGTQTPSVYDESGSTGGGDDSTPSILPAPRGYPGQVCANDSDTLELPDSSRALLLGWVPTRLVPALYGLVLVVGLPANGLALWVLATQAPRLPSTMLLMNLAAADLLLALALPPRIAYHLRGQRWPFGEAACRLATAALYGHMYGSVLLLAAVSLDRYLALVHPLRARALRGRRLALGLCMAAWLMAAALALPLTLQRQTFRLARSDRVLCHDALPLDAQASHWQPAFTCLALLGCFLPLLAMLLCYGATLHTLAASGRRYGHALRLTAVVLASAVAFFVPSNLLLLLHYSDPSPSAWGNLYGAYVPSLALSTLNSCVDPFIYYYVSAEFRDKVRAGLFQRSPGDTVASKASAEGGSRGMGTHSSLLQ
Procedure: (§1) (A) PAR2 antagonist pepducins P2pal-18S and P2pal-14GQ inhibit calcium flux induced by PAR2 (SLIGRL) (SEQ ID NO:4) but not PAR1 (TFLLRN) (SEQ ID NO:2) agonists. SW620 cells were stably transfected with PAR1 and pretreated for 1 min with various concentrations of P2pal-18S or P2pal-14GQ and then stimulated with 30 μM PAR agonist. […] Cells were stimulated with 1 μM TFLLRN (SEQ ID NO:2), 1 μM SLIGRL (SEQ ID NO:4) or 100 μM AYPGKF (SEQ ID NO:5) and [^3H]-InsP formation measured over 30 min. (C) SW620 cells were treated with the indicated concentrations of P2pal-18S or P2pal-14GQ in the upper well of an 8-μm pore Boyden chamber and allowed to migrate for 18 h towards 10 μM of the PAR2 specific agonist SLIGRL in the lower chamber. The migration to RPMI/0.1% FBS represents random migration. (D) Migration of HEK cells transiently transfected with PAR2 (wild-type, WT), or PAR2-R36A/PAR2-RQ toward chemotactic gradients of 30 nM trypsin in the absence or presence of the indicated concentration of P2pal-18S for 18 h in a transwell apparatus ([…]). Data (n=2-4) are mean±SEM. *, P<0.05 and **, P<0.005.

PAR1 [4] = biological target: T4, PAR1 (Homo sapiens, UniProt P25116); assay: [3H]-InsP formation in COS7 cells transfected with PAR1; assay type: cell-based; design: expressed in transfected cells; host or cells: COS7; settings: 1 μM TFLLRN, 30 min
T4 sequence (P25116 22-425): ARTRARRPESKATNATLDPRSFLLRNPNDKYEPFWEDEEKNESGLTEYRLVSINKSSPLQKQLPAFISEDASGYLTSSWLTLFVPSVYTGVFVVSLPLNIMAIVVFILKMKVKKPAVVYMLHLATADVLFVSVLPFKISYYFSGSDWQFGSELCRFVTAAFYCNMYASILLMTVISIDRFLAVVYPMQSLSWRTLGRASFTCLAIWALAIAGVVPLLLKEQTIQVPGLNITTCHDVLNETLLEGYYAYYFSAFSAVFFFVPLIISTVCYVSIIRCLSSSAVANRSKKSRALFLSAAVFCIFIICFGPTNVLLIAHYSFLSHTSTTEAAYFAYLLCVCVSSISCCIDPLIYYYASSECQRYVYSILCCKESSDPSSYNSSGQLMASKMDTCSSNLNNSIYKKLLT
Procedure: as §1

PAR1 [5] = biological target: T4, PAR1; assay: Calcium flux in SW620 cells stably transfected with PAR1, TFLLRN stimulus; assay type: cell-based; settings: 30 μM TFLLRN
Procedure: as §1

PAR2 [6] = biological target: T2, PAR2; assay: Agonist | (%)^‡; design: SW620 colon adenocarcinoma cells that endogenously express PAR2; endogenous in cells; host or cells: SW620 (in A7 the SW620 cells were additionally stably transfected with PAR1)
Target sequence in this assay (P55085 26-397 limits assumed): as the sequence (P55085 26-397 limits assumed) above

PAR2 [7] = biological target: T2, PAR2; assay: Calcium flux screen for PAR2 pepducin agonist and antagonist activity in SW620 cells; assay type: cell-based; design: SW620 colon adenocarcinoma cells that endogenously express PAR2; endogenous in cells; host or cells: SW620 (in A7 the SW620 cells were additionally stably transfected with PAR1)
Target sequence in this assay (P55085 26-397): as the sequence (P55085 26-397 limits assumed) above
Procedure: as §2

PAR2 [8] = biological target: T2, PAR2; assay: SW620 cell migration toward SLIGRL (Boyden chamber, 18 h); assay type: cell-based; design: SW620 colon adenocarcinoma cells that endogenously express PAR2; endogenous in cells; host or cells: SW620 (in A7 the SW620 cells were additionally stably transfected with PAR1); settings: 10 μM SLIGRL
Procedure: as §1
Target sequence in this assay (P55085 26-397): as the sequence (P55085 26-397 limits assumed) above

PAR1 [9] = biological target: T4, PAR1; assay: Lung cancer cell line migration toward NIH-3T3 conditioned media (Boyden chamber); assay type: cell-based; design: endogenous in cells; host or cells: A549, HOP62, H1299, H522, H226, HOP92 lung carcinoma lines; settings: A549, HOP62, H1299; pepducins in lower well
Excerpt: FIG. 11 illustrates PAR expression profile in lung cancer. Lung cancer cell lines (n=7) from the NCI-60 panel were characterized for surface expression of PAR1, PAR2, PAR3, and PAR4 (A) as previously described in Nguyen et al., 2006. (B): PAR mRNA expression profile in patient samples. Quantitative real-time PCR analysis of PAR1 to PAR4 (corrected for actin expression as internal control) and expressed as fold increase over nonmalignant lung tissue. Migration of lung carcinoma cell lines toward fibroblast conditioned media is expressed as cell number ±SD. (C): Silencing of PAR1 expression in A549 and HOP62 cells with shPAR1 or vector control. Surface expression of PAR1 was determined by flow cytometry using SFLLR-Ab. (D): Migration of A549 and HOP62 lung cancer cells toward NIH-3T3 conditioned media supplemented with RWJ-56110 (10 μmol/L) and SCH7979 (50 μmol/L) or vehicle (0.2% dimethyl sulfoxide). Migration of lung cancer cells treated with shPAR1 treatment or appropriate controls toward NIH-3T3 conditioned media. Basal migration toward conditioned media (vehicle treated or vector control) was normalized to 100%. *P<0.05, **P<0.01.
FIG. 12 illustrates that PAR1 is a promigratory factor in lung cancer cells. […] (G): Cell from primary lung tumors or nonmalignant control were pretreated with PAR1 pepducins and migration was determined (*P<0.05, **P<0.01). […]

## NC(=O)[C@@H]1CCCN1C(=O)[C@H](CCCN=C(N)N)NC(=O)c1ccc2ccccc2c1O [APC-366]
Mast cell tryptase [1]
  Protection in λ-carrageenan/kaolin-induced paw edema: 40%
Mast cell tryptase [2]
  Inhibition of chemotactic migration toward tryptase-containing mast cell media: completely inhibited

## CCCCCCCCCCCCCCCC(=O)NCC(=O)N[C@@H](CC(=O)O)C(=O)N[C@@H](CCC(=O)O)C(=O)N[C@@H](CC(N)=O)C(=O)N[C@@H](CO)C(=O)N[C@@H](CCC(=O)O)C(=O)N[C@@H](CCCCN)C(=O)N[C@@H](CCCCN)C(=O)N[C@@H](CCCNC(=N)N)C(=O)N[C@@H](CCCCN)C(=O)N[C@@H](CCC(N)=O)C(=O)N[C@@H](C)C(=O)N[C@H](C(=O)N[C@@H](CCCCN)C(N)=O)[C@@H](C)CC [P2pal-14GQ] (Palmitoyl-GDENSEKKRKQAIK-NH2)
PAR2 [3]
  Agonist | (%)^†: 3%
PAR4
  Inhibition of InsP signaling from PAR4: do not inhibit
PAR1 [4]
  Inhibition of InsP signaling from PAR1: do not inhibit
PAR1 [5]
  Inhibition of PAR1 calcium flux: selective for PAR2 and not PAR1
PAR2 [6]
  Agonist | (%)^‡: 2%
PAR2 [7]; 6 μM pepducin, 1 min pretreatment, against 100 μM SLIGRL
  Antagonist activity (inhibition of SLIGRL calcium flux, area under the curve): 53%
PAR2 [7]; 3-4 μM and 14-15 μM pepducin
  Agonist activity (calcium flux): agonist activity remained insignificant or insubstantial
PAR2 [8]
  Suppression of SW620 migration to SLIGRL: not as efficacious in suppressing migration of SW620 cells to SLIGRL as compared to P2pal-18S

## P1pal-19EE: negative control PAR1 i3 pepducin, 19 residues, S309 to E and A311 to E; SEQ ID NO:27 (Palmitoyl-ECESSSAEANRSKKERELF-NH2)
PAR1 [9]
  Suppression of migration of PAR1-expressing adenocarcinomas: no effect on migration
